These results are taken from PubChem BioAssay AID1508591.

Structures are written as SMILES. Some results are limits rather than exact numbers.

For the data set the following is noted: rat; liver microsomes; pH 7.4; 15.0 min; 1.0 µM. (In general: Liver microsomes are vesicles of endoplasmic reticulum, rich in cytochrome P450 enzymes.)
The term half-life denotes how long it takes for the measured level to halve. Read a low half-life as rapid decline. `Fc1ccc(Nc2cc(-c3ccccc3)nc(-c3ccncc3)n2)cc1F` yielded a half-life greater than 30 min. Turning to `Cc1ccc(N2CCN(c3cnn(-c4nc5ccccc5s4)c(=O)c3Cl)CC2C)cc1` (stereo not given), the half-life was determined as 10.5 min. The value for `CCOC(=O)N1CCN(Cc2nc3c(c(=O)n(C)c(=O)n3C)n2Cc2ccc(F)cc2)CC1` was 8.7 min; that for `COc1ccc(C(=O)N2CCCC(c3nn(-c4ccc(OC)cc4)c(=O)[nH]3)C2)cc1` (stereo not given) was greater than 30 min. The figure for `Cc1ccnc(NC(=S)N2CC[C@@H](Nc3cccc(C(F)(F)F)c3)C2)c1` is 3.5 min. In turn, `COC(=O)c1ccc2c(c1)nc1n2[C@@H](CNC(C)=O)COC1` had a half-life greater than 30 min. With `O=C1c2ccccc2C2=Nc3ccccc3SC(c3ccc(Cl)cc3)C12` (stereo not given), the half-life came to 2.96 min.

`COc1ccc(-n2nc(C3CCCN(C(=O)c4ccc(C)cc4)C3)[nH]c2=O)cc1` (stereo not given) came in with a half-life of 23.9 min. The figure for `Cc1ccc(NC(=O)c2cc(-c3ccc(C)o3)nc3ccccc23)nc1` is 8.3 min.

`Cc1cc(C)nc(NC(=S)N2CCN(c3ccc4nsnc4c3)CC2)c1` displayed a half-life of 15.2 min. In the case of `Cc1cccc(Nc2nc(NCc3ccco3)c3ccccc3n2)c1`, the half-life turned out to be 3.54 min. The value for `FC(F)(F)c1ccccc1-c1nc(NCc2cccs2)c2ccccc2n1` was 2.5 min; that for `COc1ccc(-c2nc3ccccc3c(=O)n2Cc2ccccc2)cc1COc1ccc(NC(C)=O)cc1` was 3.16 min; that for `Cc1ccc(C)c(CN2CCC(CNC(=O)Nc3ccc(Br)cc3F)CC2)c1` was 3.58 min.

Molecule `COc1ccc(-c2ccc3ncc(Nc4ccc(C(N)=O)cc4)n3n2)cc1OC` registered a half-life greater than 30 min.

The molecule `CN1CCN(C(=O)c2ccc3cc(CCNc4ncnc5ccc(C#N)cc45)ccc3c2)CC1` returned a half-life of 8.11 min. The value for `O=C(NCCCCc1ccccc1)C1CCN(c2nc(-c3ccc(Br)cc3)cs2)CC1` was 4.1 min; that for `Fc1cc(Nc2nc(-c3ccncc3)nc3ccccc23)ccc1-c1cccc(OC(F)(F)F)c1` was greater than 30 min. Regarding `NC1CCC(Nc2nc(Nc3ccc(C(=O)N4CCCCC4)cc3)c3ncn(-c4cccc(F)c4)c3n2)CC1` (stereo not given), the half-life is 23 min. Take `CN1Cc2c(ccc3c2OCO3)[C@@H]2[C@H]1c1cc3c(cc1C[C@@H]2O)OCO3`: the half-life was 2.12 min. As for `CCOC(=O)C1CCN(C(=O)C2(NC(=O)Nc3ccc(F)cc3F)CCCCC2)CC1`, the half-life was 2.7 min. `CN1C(=O)c2ccccc2[S@](=O)c2ccc(C(=O)NCc3ccc(Cl)cc3)cc21` had a half-life of 15 min.

For `Cn1nnnc1Sc1ncnc2scc(-c3ccc(F)cc3)c12`, the half-life amounted to 10.7 min. On to `Fc1ccc(CN2CCOC[C@H]2c2ncc(-c3ccc(Cl)s3)[nH]2)cc1`, for which the half-life stood at 3.47 min. Molecule `Nc1scc2c(C(=O)O)nn(-c3ccccc3)c(=O)c12` yielded a half-life greater than 30 min.

`CN(C)CCOc1ccc(C(=C(CCCl)c2ccccc2)c2ccccc2)cc1` showed a half-life greater than 30 min.

`O=C(NCC1Cn2cccc2CN1Cc1cccnc1)Nc1ccccc1` (stereo not given) returned a half-life of 1.41 min. The value for `CCOc1ccc(CCNC(=O)c2cc3sccc3n2Cc2ccccc2)cc1OCC` was 1.7 min.

In the case of `Cc1ccc(S(=O)(=O)Nc2cnccc2C(=O)Nc2nc(-c3cccnc3)cs2)cc1`, the half-life is 7.7 min.

In the case of `O=C(Nc1nc(-c2ccccc2)cs1)c1ccncc1NS(=O)(=O)c1ccc2ccccc2c1`, the half-life was determined as 8.4 min.

Molecule `Cc1nc2ccc(C(=O)N3CCC4(CC3)CC(=O)c3c(cnn3C(C)C)C4)cc2[nH]1` gave a half-life greater than 30 min.

For `CN1CCN(Cc2ccc(NC(=O)Cc3ccc(Oc4cc(NC(=O)C5CC5)ncn4)cc3)cc2C(F)(F)F)CC1`, the half-life was greater than 30 min.

On to `NC(=O)C1CCN(c2nc(-c3cccnc3)cs2)CC1`, for which the half-life was greater than 30 min.

`Oc1cccc2nc3ccccc3nc12` came in with a half-life of 8.9 min. For the molecule `Cc1cn(-c2cc(NC(=O)c3ccc(C)c(Nc4nccc(-c5cccnc5)n4)c3)cc(C(F)(F)F)c2)cn1`, the half-life was greater than 30 min. The molecule `Fc1ccc(Nc2nc(-c3ccccc3)nc3ccccc23)cc1F` displayed a half-life greater than 30 min.

Molecule `Cc1ccccc1C(=O)N1CCc2cc(-c3nc(NC(=O)Cc4ccc5c(c4)OCCO5)sc3C)ccc21` came in with a half-life of 22 min. Consider `O=C(NCCCNc1nc(Nc2cccc(NC(=O)N3CCCC3)c2)ncc1I)c1cccs1`, for which the half-life is 1.87 min. The value for `C[C@H]1[C@@H](CCC(=O)Nc2ccc(F)cc2)O[C@@H]2O[C@]3(C)CC[C@@H]4[C@H](C)CC[C@@H]1[C@@]24OO3` was 2 min; that for `Cc1ccc2oc(NC3=NC4(CCCC4)C4=C(CCCC4=O)N3)nc2c1` was 2.7 min; that for `COc1cc(Nc2nc(-c3ccncc3)nc3ccccc23)ccc1N1CCN(C)CC1` was 11 min.

Molecule `Cc1ccc(CC(=O)Nc2nc(-c3ccc4c(c3)CCN4C(=O)c3ccccc3C)c(C)s2)cc1C` registered a half-life of 19 min.

In turn, `O=C1CCCc2cc(S(=O)(=O)Nc3cnccc3C(=O)Nc3nc(-c4ccccc4)cs3)ccc2N1` had a half-life greater than 30 min. As for `Fc1ccc(-c2ccc(Nc3nc(-c4ccncc4)nc4ccccc34)cc2F)cc1`, the half-life was greater than 30 min. With `O=[S+]([O-])(Nc1ccccc1)c1ccc(NCc2cccc(C(F)(F)F)c2Cl)cc1`, the half-life came to 13 min.

With `CCCCCNc1oc(-c2cccc3ccccc23)nc1C#N`, the half-life was found to be 2.1 min. The figure for `CC(=O)c1c(C)[nH]c(C(=O)Nc2cccc(S(=O)(=O)N3CCCCC3)c2)c1C` is 1.7 min; for `COC(=O)c1ccnc(NC(=S)N2CCN(c3cccc(C(F)(F)F)c3)CC2)c1` it is greater than 30 min; for `COc1cc(O)c([C@H](CC(=O)N2CC(C)CC(C)C2)c2ccc3c(c2)OCO3)c(OC)c1` (stereo not given in full) it is 3.3 min.

The molecule `CC(C)c1nc2oc3c(NCCN(C)C)ncnc3c2c2c1COC(C)(C)C2` returned a half-life greater than 30 min. The molecule `COc1ccc(NC(=O)CCCc2nnc3n(CCC(C)C)c(=O)c4sccc4n23)cc1Cl` came in with a half-life of 2.96 min. Regarding `Cc1ccnc(NC(=S)N2CCN(c3cccc(C(F)(F)F)c3)C[C@@H]2C)c1`, the half-life worked out at 7.12 min.

With `FC(F)(F)c1ccccc1-c1nc(NCc2cccc(Cl)c2)c2ccccc2n1`, the half-life is 2.97 min. The value for `CC/C=C\CC1C(=O)CCC1CC(=O)OC` (stereo not given) was greater than 30 min. The figure for `CN(C)C(=O)c1cccc(-c2csc(N3CCC(C(N)=O)CC3)n2)c1` is greater than 30 min; for `COc1cccc(Nc2nc(-c3ccncc3)nc3ccccc23)c1` it is 4.3 min.

`COc1ccc(NC(=O)c2ccc[nH]2)cc1S(=O)(=O)Nc1ccc(Br)cc1` gave a half-life of 7.44 min. The value for `CCOC(=O)NNc1ccc(N(CC)CC(C)O)nn1` (stereo not given) was greater than 30 min. Turning to `Nc1cccc(CNc2ccc(S(=O)(=O)Nc3nccs3)cc2)c1O`, the half-life was greater than 30 min. Consider `CC1(C)CC(=O)C2=C(C1)NC(Nc1nc3ccccc3o1)=NC2c1ccccc1Cl` (stereo not given), for which the half-life was 11 min. The value for `CC(C=CC(=O)NO)=C[C@@H](C)C(=O)c1ccc(N(C)C)cc1` was 4.06 min. The value for `OC1(CN2CCN(c3ccc(F)c(Cl)c3)CC2)CCCNC1` (stereo not given) was 5.96 min. The figure for `O=C(Nc1cccc(Cc2ccccc2)n1)c1ccc(-c2cccc([N+](=O)[O-])c2)o1` is 1.7 min; for `COc1ccc(CN2CCNc3cc(Nc4ccccc4)ncc3C2)cc1` it is 3.17 min. Consider `CC[S+](=O)([O-])Nc1ccccc1C(=O)Nc1nc(-c2ccccc2)cs1`, for which the half-life is 14 min.
